The values below come from patent publication US20130023504A1, “Modulation of Prostaglandin/Cyclooxygenase Metabolic Pathways” (HUNTER-FLEMING LIMITED, priority 2006, published 2013).

This assay has as its system rats with DSS-induced colitis. Description: DSS-induced colitis in rats, 7-day i.p. pre-treatment. Type of assay: in vivo, rat. As to conditions: for Body weight: DSS (5%) day 7-14. From the text: All experimental protocols and procedures were in agreement with the directive 86/609/CEE of the European Community, for the use of laboratory animals. Male Wistar rats (180-200 g), purchased from Charles River (L'Arbresle, France) were fed with rodent laboratory chow and were given water ad libitum.
After a 7-day adaptation period, animals were divided into two control groups (sham-control and 7β-hydroxy-EPIA-treated control group and two colitis groups (colitis and 7β-hydroxy-EPIA-treated colitis). 7β-Hydroxy-EPIA (0.01, 0.1, and 1 mg/kg body weight dissolved in DMSO) or DMSO alone (vehicle) was administered i.p. once a day for 7 days, from day 0 to day 7. Colitis was induced from day 7 to 14 by addition of DSS (molecular weight 36-50 kDa; MP Biomedicals, France) to drinking water. The two control groups received tap water only.
At day 9, 11, 13, 14, body weight, colon length, stool consistency, were recorded and fresh rectal bleeding evaluated by ocular inspection. The severity of colonic damage was blindly scored as described by Mabley et al., 2001, Inflamm. Res.; 50: 561-569) (0: well-formed pellets and no colon damage; 1: colon with a small amount of blood present mixed with feces; 2: colon with large amount of blood present with faeces; 3: colon filled with blood and no faeces).
A portion of the proximal colon (1 cm) was fixed in 4% formaldehyde (Labonord, Templemars, France) and embedded in paraffin. Tissue sections (5 μm) were prepared, thereafter cleared, hydrated and stained either with hematoxylin/eosin or with Alcian blue according to standard protocols for histological evaluation of colonic damage and mucus goblet cells content, respectively.
The colon was opened along the mesenteric border, and the epithelial cells were scrapped away with the blunt edge of a glass slide then weighed, washed and centrifuged. The pellet was homogenized in 9 volumes TKE buffer (10 mM Tris-HCl; 150 mM KCl; 1 mM EDTA; 0.25 mM PMSF, pH 7.4) and then frozen at −80° C. until further use. The protein content of homogenates were measured according to Lowry et al. (J Biol Chem 1951; 193: 265-74).
MPO activity was assessed in homogenates using the o-dianisidine method of Krawisz et al. (Gastroenterology 1984; 87(6):1344-50) with the modifications of Pelissier et al. (Steroids 2006; 71(3):240-8). MPO activity was expressed as the amount of enzyme necessary to produce a per minute change in absorbance at 460 nm using the extinction coefficient for oxidized o-dianisidine (1.13×10^4 mol^−1.cm^−1).
Lipid peroxidation (Tbars) was measured by a modification by Albrecht et al., (1992, Toxicol. Lett; 63: 91-96) of the method described by Ohkawa et al. (Anal Biochem 1979; 95:315-58). Absorbance of the red 1:2 adduct malondialdehyde-thiobarbituric acid (Sigma-Aldrich, St Quentin-Fallavier, France) was measured at 532 nm (extinction coefficient used: 0.156 μmol^−1 cm^−1). The carbonyl contents in oxidized proteins (Prot CO) were assessed by the method of Levine et al. (Methods Enzymol 1990; 186:464-78). The non-protein sulfhydryl group content (mostly GSH) was taken as the anti-oxidant defense marker in homogenates and determined by the method of Sedlak and Lindsay (Anal Biochem 1968; 25(1):192-205).
Commercially available EIA kits were used for the determination of PGE2 levels (Oxford Biomedical Research, UK) and 15d-PGJ2 levels (Assay designs, Euromedex, France) in colonic supernatants obtained from fresh homogenates. Measurement of PGD2 levels was obtained using the prostaglandin D2-MOX EIA kit (Cayman Chemical, Euromedex). In this case, and prior to assay, the fresh samples were immediately treated with the MOX-HCl reagent which converted PGD2 into PGD2-MOX, thus preventing any further chemical degradation.
Total RNA from fresh colonic samples (300 mg) was extracted using Trizol Reagent (Invitrogen, Cergy-Pontoise, France). […]

Marks after values point to notes of the source that are not given here.

For `CC12CCC3C(C1CCC2=O)[C@@H](O)C[C@H]1C[C@@H](O)CCC31C` (stereo partly drawn) [Compound 7β-OH-EPIA, 7β-hydroxy-EPIAndrosterone], under “0.01 mg/kg”, the “colitis damage and tissue inflammation” value is reported as “completely prevented”. In addition, the Body weight is, setting by setting: (0.01 mg/kg body weight i.p. day 0-7, day 14) 297.5 ± 9.5^a g; (0.1 mg/kg body weight i.p. day 0-7, day 14) 272.1 ± 6^b g; (1 mg/kg body weight i.p. day 0-7, day 14) 267.3 ± 7.7^b g. For the same molecule, the “DSS-induced production of colonic PGE2” value (0.01 mg/kg from D0 to D7) is recorded as “completely prevented”. Also, the “colonic level of 15d-PGJ2” value (0.01 mg/kg from D0 to D7, DSS) is on record as “dramatically increasing”. In addition, the Colon length (0.01 mg/kg, day 14) is listed as 16 ± 0.01^c cm; the Colon length (0.1 mg/kg, day 14) is listed as 15.6 ± 0.3^c cm; the Colon length (1 mg/kg, day 14) is recorded as 14.2 ± 0.6^b cm. Further, the Epididymis weight is 2.5 ± 0.03^a g (0.01 mg/kg, day 14); 1.9 ± 0.14^b g (0.1 mg/kg, day 14); 1.9 ± 0.1^b g (1 mg/kg, day 14). In addition, the Liver weight (0.01 mg/kg, day 14) is reported as 12.1 ± 0.3^a g; the Liver weight (0.1 mg/kg, day 14) is reported as 12.3 ± 0.6^a g; the Liver weight (1 mg/kg, day 14) is recorded as 11.9 ± 0.4^a g. For the same molecule, the Spleen weight is recorded as 0.8 ± 0.02^a g (0.01 mg/kg, day 14); 1.03 ± 0.2^a g (0.1 mg/kg, day 14); 0.82 ± 0.06^a g (1 mg/kg, day 14). In addition, the “diarrhea and rectal bleeding” value (0.01, 0.1 mg/kg, day 14) was “suppression”. The “MPO activity in colonic mucosa” value (all dose levels, 0.01, 0.1 and 1 mg/kg, vs colitis group) is listed as “significantly decreased”. Besides, under “day 13 and 14, all dose levels”, the “oxidative stress parameters (Prot CO, Tbars, GSH) in colonic tissue” value is “restored”. Also, the “increase in COX-2 and mPGES-1 mRNA synthesis by DSS” value (pre-treatment day 0 to day 7) is listed as “suppressed”.
